This note sets out measurements from patent publication US20230381774A1, “MICROFLUDIC LAB-ON-CHIP DEVICE, MATRIX, SMALL MOLECULES AND THREE-DIMENSIONAL SPHEROIDS FOR CELL REPROGRAMMING” (The Regents of the University of California, priority 2022, published 2023).

The test system of experiment [1] is BAM-transduced fibroblasts. Briefly: iN reprogramming of BAM-transduced fibroblasts with cytoskeletal and adhesion inhibitors (TUBB3+ iN cells, 2 weeks). The format is cell-based, mouse. As to conditions: Y-27632 20 μM, nocodazole 0.3 μM, cytochalasin D 1 μM, jasplakinolide 0.05 μM; U0126 various doses. The method, then: To examine whether these changes in cell stiffness, actin structure and expression of contractility-mediating genes were involved in iN reprogramming, we evaluated the effects of disrupting the cytoskeleton using small molecule inhibitors. For these experiments, BAM-transduced fibroblasts were reprogrammed as in FIG. 1A and chemical compounds known to perturb the cytoskeleton were added to the culture medium on day 1 to evaluate their effects on the reprogramming process. […] The reprogramming efficiency was determined as the percentage of TUBB3*-iN cells normalized to the number of cells plated at 24 hours post-seeding (i.e., day 0). First, we tested whether disruption of cytoskeletal contractility could influence the direct reprogramming of fibroblasts into neurons using blebbistatin, a non-muscle myosin II inhibitor^22-24. We observed that iN cells could be derived in the absence and presence of blebbistatin (FIG. 3A). […] In particular, treatment with 10 μM blebbistatin generated the highest number of iN cells and increased the reprogramming efficiency by approximately 4.5-fold compared to the control, therefore, this concentration was used in all subsequent experiments. […] As Ascl1 has been identified as a pioneer factor for iN reprogramming and transduction of Ascl1 alone is sufficient to generate iN cells^25,26, we further investigated whether blebbistatin could influence iN conversion by Ascl1 induction.
After transduction, mouse fibroblasts were seeded onto multi-well tissue culture-treated polystyrene dishes (Falcon) coated with laminin (0.1 mg/ml, Corning) at 4,000 cells per cm^2. Twenty-four hours after seeding, the medium was replaced to MEF medium containing doxycycline (2 μg/ml, Sigma). The following day (i.e., day 1) the medium was changed to N3 medium (DMEM/F12 [GIBCO]+N2 supplement [Invitrogen]+B27 supplement [Invitrogen]+1% penicillin/streptomycin [Gibco]+ doxycycline [2 μg/ml, Sigma]) and the cultures were maintained in this medium for the duration of the experiments. For Ascl1-only reprogramming, N3 medium was further supplemented with BDNF (5 ng/ml, R&D systems) and GDNF (5 ng/ml, R&D systems) after day 7. For cytoskeletal and cell adhesion disruptions, Blebbistatin (Millipore), Y-27632 (20 μM; Cayman Chemical), Nocodazole (0.3 μM; Sigma), Cytochalasin D (1 μM; Sigma), Jasplakinolide (0.05 μM; Cayman Chemical) and PF573228 (Sigma) were administered in N3 medium on day 1 and for the first 7 days of reprogramming (unless stated otherwise) and used at the indicated concentrations. Culture medium was replenished every 2 days during reprogramming to maintain the activity of the small molecules. After culturing for the desired length (14 days for BAM and 21 days for Ascl1 only), the induced neuronal (iN) cells were analyzed and the reprogramming efficiency was determined.
The reprogramming efficiency was determined by as the percentage of TUBB3^+ iN cells in each condition normalized to the number of cells plated at 24 hours post-seeding. Epifluorescence images were collected using a Zeiss Axio Observer.D1, Zeiss Axio Observer.Z1, and ImageXpress Micro XLS System (Molecular Devices), whereas confocal images were acquired using a Zeiss LSM710 microscope and Leica SP8 Confocal Laser Scanning microscope.

The test system of another experiment is histone marks. Nature of the experiment: Immunofluorescence of histone marks in non-transduced fibroblasts. The format is cell-based, mouse. As to conditions: for euchromatin marks (AcH3, H3K4me3, H3K4me1): global, 10 μM blebbistatin or 5 μM PF573228, 2 hours, vs control; for histone trends compared with blebbistatin: other cytoskeletal compounds. The method, then: For immunostaining, cells were fixed with 4% paraformaldehyde (Electron Microscopy Sciences), permeabilized with 0.5% Triton-X-100 (Sigma), and blocked with 5% donkey serum (Jackson Immunoresearch) in phosphate buffered saline (PBS). For actin-cytoskeleton staining, samples were incubated with fluorescein isothiocyanate-conjugated phalloidin (Invitrogen) for 1 hour. Primary antibodies were incubated for 1 hour at room temperature or overnight at 4° C., followed by 1-hour incubation with Alexa 488 and/or Alexa 546-labeled secondary antibodies (Molecular Probes). Nuclei were stained with 4,6-diamino-2-phenylindole (DAPI) (Invitrogen).
Quantification of histone intensity per nuclei was performed using an ImageJ macro. DAPI-stained nuclei were segmented using gaussian blur, thresholding, watershed, and analyze particle functions to identify individual nuclei. This mask was applied to the corresponding stained fluorescence channel to quantify the average fluorescence intensity within each nucleus.

The test system of the next experiment is H3K9me3. Briefly: H3K9me3 level in fibroblasts (immunostaining). It counts as cell-based, mouse. As to conditions: for H3K9me3 level: agent alone. The protocol: Samples collected for immunofluorescence staining at the indicated time points were washed once with PBS and fixed in 4% paraformaldehyde for 15 minutes. Samples were washed three times with PBS for 5 minutes each and permeabilized using 0.5% Triton X-100 for 10 minutes. After three subsequent PBS washes, samples were blocked with 5% normal donkey serum (NDS; Jackson Immunoresearch, 017000121) in PBS for 1 hour. Samples were incubated with primary antibodies (Supplementary Table S1 in Song et al.) in antibody dilution buffer (1% normal donkey serum (NDS)+0.1% Triton X-100 in PBS) for either 1 hour or overnight at 4° C. followed by three PBS washes and a 1-hour incubation with Alexa Fluor® 488- and/or Alexa Fluor® 546-conjugated secondary antibodies (Molecular Probes). Nuclei were stained with DAPI in PBS for 10 minutes. Epifluorescence images were collected using a Zeiss Axio Observer Z1 inverted fluorescence microscope and analyzed using ImageJ. Confocal images were collected using a Leica SP8-STED/FLIM/FCS Confocal and analyzed using ImageJ.
Average lamin and histone marker intensities per nuclei were quantified using an ImageJ macro. Gaussian blur, thresholding, watershed, and analyze particle functions were applied to the DAPI channel to create individual selections for each nucleus. This mask was applied to the corresponding stain image to measure the average fluorescence intensity within each nucleus.

In experiment [2] the test system is BAM-transduced fibroblasts. Nature of the experiment: iN reprogramming of BAM-transduced fibroblasts with chemical/siRNA treatment and microfluidic squeezing (Tuj1 staining, day 7). The format is cell-based, mouse. As to conditions: for iN reprogramming efficiency: agent alone without squeezing, vs control, Bix01294 1 μM, JIB-04 100 nM, Decitabine 0.5 μM, 24 hours; for nuclear deformation-induced iN reprogramming efficiency: pre-treatment followed by squeezing in 7-μm microchannels, vs squeezed-only group; for increase of iN conversion: alone, at its optimal concentration. The method, then: Fibroblasts were isolated from ear tissues of adult (1 month-old) C57BL/6 mice, Tau-EGFP reporter mice (Jackson Laboratory, 004779) and R26-M2rtTA;Col1a1-tetO-H2B-GFP compound mutant mice (Jackson Laboratory, 016836), and expanded in fibroblast medium: DMEM (Gibco, 11965), 10% fetal bovine serum (FBS; Gibco, 26140079) and 1% penicillin/streptomycin (GIBCO, 15140122). For all experiments, passage-2 cells were used and synchronized upon reaching 80% confluency using DMEM with 1% FBS for 24 hours before the transduction with viruses containing BAM constructs. The following day (day 0) the medium was changed to mouse embryonic fibroblasts (MEF) medium containing doxycycline (2 ng/ml, Sigma) to initiate the expression of the transgenes and thus, reprogramming. After 6 hours, transduced fibroblasts were passaged, and either subjected to microfluidic deformation using microchannels of various widths. Cells were then seeded onto glass slides coated with 0.1 mg/mL fibronectin (ThermoFisher, 33016015) overnight at a density of 3,000 cells/cm^2. Twenty-four hours later (day 1), cells were cultured in N2B27 medium: DMEM/F12 (Gibco, 11320033), N-2 supplement (Gibco, 17502048), B-27 supplement (Gibco, 17504044), 1% penicillin/streptomycin, and doxycycline (2 ng/ml), and half medium changes were performed every 2 days. On day 7 after microfluidic deformation, cells were fixed and stained for Tuj1 to determine the reprogramming efficiency. iN cells were identified based on positive Tuj1 staining and a neuronal morphology. The reprogramming efficiency was determined as the percentage of iN cells on day 7 relative to the number of the cells initially seeded. For long-term studies where maturation and functionality of the iN cells were examined, cells were kept in culture for 5 weeks. Reprogramming of iPSC from wild-type fibroblasts was performed as described previously^18.
To determine the role of H3K9 methylation in microfluidic device-induced iN reprogramming, BAM-transduced fibroblasts were treated with the H3K9 methyltransferase inhibitor Bix-01294 (Cayman chemical, 13124) or demethylase inhibitor JIB-04 (Cayman chemical, 15338) at the indicated concentrations for 24 hours prior to introduction into the microdevice. Parallel conditions with DMSO served as a control. The iN reprogramming efficiency was determined via Tuj1 staining 7 days after squeezing.
To determine the involvement of ion channels in microfluidic device-induced iN reprogramming, calcium channel blocker Amlodipine (Cayman chemical, 14838), potassium channel blocker Quinine (Cayman chemical, 23958) and sodium channel blocker procainamide (Cayman chemical, 24359) were used to inhibit calcium, potassium, and sodium ion channels, respectively. BAM-transduced fibroblasts were treated with small molecule blockers at the indicated concentrations for 12 hours prior to being introduced into the microfluidic device. Parallel conditions with DMSO served as a control. The iN reprogramming efficiency was determined via Tuj1 staining 7 days after squeezing.

The subject of experiment [3] is primary human neonatal dermal fibroblasts (hNDFs). Nature of the experiment: Spatial iN reprogramming in 3D spheroids (Tuj1 staining). The following applies: 3 days of reprogramming, relative to no-treatment controls. It counts as cell-based. The source says: For the reduction to practice, primary human neonatal dermal fibroblasts (hNDFs) were transduced with doxycycline (Dox)-inducible lentiviral vectors for the BAMN factors. After Dox induction in monolayer to ensure unbiased activation of the transgenes, hNDFs were either plated onto Matrigel-coated cover slips as 2D controls or centrifuged in microwells to form 3D aggregates, or “spheroids” (FIG. 9A). The expression of neuron-specific β-tubulin III (Tuj1) was used as a marker of neuronal fate, as is convention. Tuj1 expression began earlier in spheroids than in 2D culture, appearing as early as day 2 (two days after Dox induction and one day after spheroid formation) (FIG. 9BC). To evaluate relative reprogramming efficiency, spheroids were replated onto Matrigel-coated cover slips after three days without enzymatic disaggregation.
Direct reprogramming involves both disruption of the existing regulatory network (generally early on) and establishment of another. The initial nonspecific disruption is often mechanistically associated with cell cycle regulation, cell senescence, chromatin inactivation, and genome stability. To assess the impact of mechanobiological changes associated with spheroid culture on direct reprogramming, primary human neonatal dermal fibroblasts (hNDFs) were transduced with doxycycline (dox)-inducible lentiviral vectors for the BAMN factors. […]

“Also recorded” adds a separate entry of the source.

With `C/C1=C\[C@H](C)C[C@H](C)OC(=O)C[C@H](c2ccc(O)cc2)NC(=O)[C@@H](Cc2c(Br)[nH]c3ccccc23)N(C)C(=O)[C@H](C)NC(=O)[C@@H](C)C1` [jasplakinolide], the “reprogramming efficiency relative to control” value in experiment [1] was “reduced the reprogramming efficiency relative to control; also recorded: inhibiting iN conversion”. Besides, in the experiment on histone marks, the “euchromatin marks (AcH3, H3K4me3, H3K4me1)” value (“euchromatin marks” for short) is “decreasing euchromatin marks (e.g., AcH3)” and the “histone trends compared with blebbistatin” value is listed as “no other cytoskeletal disrupting compounds”.
In the case of `N#CC(=C(/N)Sc1ccccc1N)/C(C#N)=C(\N)Sc1ccccc1N` [U0126], the “reprogramming efficiency relative to control” value in experiment [1] was “not significantly altered”.
Take `Clc1ccc(N/N=C(\c2ccccc2)c2ccccn2)nc1` [JIB-04]: the H3K9me3 level entry with H3K9me3 is “significantly increased H3K9me3”. Also, the “decrease of H3K9me3 by squeezing” value in the experiment with H3K9me3 (pre-treated for 24 hours, then 7-μm channels) is recorded as “much less than the group without JIB-04 treatment”. Also, in experiment [2], the iN reprogramming efficiency result is “reduced the reprogramming efficiency compared to the control” and the “nuclear deformation-induced iN reprogramming efficiency” value is “strikingly suppressed nuclear deformation-induced iN reprogramming”.
Regarding `C[C@@H](N)[C@H]1CC[C@H](C(=O)Nc2ccncc2)CC1` [Y-27632], the “reprogramming efficiency relative to control” value in experiment [1] was “increased the yield of iN cells similar to blebbistatin, although to a lesser degree”.
`C=C1[C@@H](C)[C@H]2[C@H](Cc3ccccc3)NC(=O)[C@]23[C@H](OC(C)=O)/C=C/[C@@](C)(O)C(=O)[C@@H](C)C/C=C/[C@H]3[C@@H]1O` [cytochalasin D]: in experiment [1], the “reprogramming efficiency relative to control” value is on record as “reduced the reprogramming efficiency relative to control; also recorded: inhibiting iN conversion”. Also, in the experiment with histone marks, the “euchromatin marks” value is reported as “decreasing euchromatin marks (e.g., AcH3)” and the “histone trends compared with blebbistatin” value is recorded as “no other cytoskeletal disrupting compounds”.
In the case of `COc1cc(-c2cc(-c3cccc(O)c3)cnc2N)cc(OC)c1OC` [K02288], in experiment [3], the “spatial Tuj1+ reprogramming patterns, inhibitor alone” value was “did not affect spatial Tuj1+ reprogramming patterns”.
In the case of `COC(=O)Nc1nc2ccc(C(=O)c3cccs3)cc2[nH]1` [nocodazole], the “reprogramming efficiency relative to control” value in experiment [1] is listed as “resulted in a reduction in the reprogramming efficiency; also recorded: inhibiting iN conversion”. In addition, in the experiment with histone marks, the “euchromatin marks” value is recorded as “decreasing euchromatin marks (e.g., AcH3)” and the “histone trends compared with blebbistatin” value is “no other cytoskeletal disrupting compounds”.
`Nc1ncn([C@H]2C[C@H](O)[C@@H](CO)O2)c(=O)n1` [Decitabine]: in experiment [2], the “increase of iN conversion” value is recorded as “about 2 fold”.
For `CCCC(CCC)C(=O)O` [valproic acid], in experiment [2], the iN reprogramming efficiency result is “slightly increased iN reprogramming efficiency” and the “nuclear deformation-induced iN reprogramming efficiency” value is given as “additive to mechanical squeezing”.
For `COc1cc2nc(N3CCCN(C)CC3)nc(NC3CCN(Cc4ccccc4)CC3)c2cc1OC` [Bix01294], in the experiment with H3K9me3, the H3K9me3 level result is given as “specifically suppressed H3K9me3 in a dose-dependent manner”. For the same compound, in experiment [2], the iN reprogramming efficiency entry was “partially mimicked the squeezing effect on the reprogramming efficiency”, the “increase of iN conversion” value is recorded as “about 2 fold” and the “nuclear deformation-induced iN reprogramming efficiency” value is given as “slightly increased the reprogramming efficiency compared to the squeezed-only group”.
